This note sets out measurements from PubChem BioAssay AID1224914.

The target of the assay is Serine/threonine-protein kinase PAK 2 (Homo sapiens) (UniProt Q13177). Put plainly: PubChem AID 1224914. Conditions: PAK2 binding assay.
Sequence of Serine/threonine-protein kinase PAK 2 (Homo sapiens) (Q13177 whole entry, looked up): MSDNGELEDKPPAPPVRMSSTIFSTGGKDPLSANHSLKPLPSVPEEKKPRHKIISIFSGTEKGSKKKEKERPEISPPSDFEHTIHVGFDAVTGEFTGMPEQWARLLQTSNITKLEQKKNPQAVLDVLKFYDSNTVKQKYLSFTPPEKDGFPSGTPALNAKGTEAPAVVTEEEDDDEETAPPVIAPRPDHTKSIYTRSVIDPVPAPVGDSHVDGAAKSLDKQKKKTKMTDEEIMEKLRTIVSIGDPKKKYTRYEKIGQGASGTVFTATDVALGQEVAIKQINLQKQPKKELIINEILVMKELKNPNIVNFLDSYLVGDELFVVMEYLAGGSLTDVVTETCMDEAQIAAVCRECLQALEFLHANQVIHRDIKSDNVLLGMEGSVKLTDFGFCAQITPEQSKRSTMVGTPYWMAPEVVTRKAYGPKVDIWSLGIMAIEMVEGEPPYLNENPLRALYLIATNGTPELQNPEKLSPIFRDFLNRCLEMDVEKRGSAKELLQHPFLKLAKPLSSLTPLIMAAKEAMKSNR

`CC(C)NC(=O)N1CC[C@H](N=C2Nc3cc(F)ccc3N(CC(F)F)c3ccc(Cl)cc32)C1`: the Kd (commonly the equilibrium constant for the complex coming apart) is 400 nM.
